Experiment [1] has as its target T1, baculovirus-expressed ALK (Homo sapiens, UniProt Q9UM73).
T1 construct: host or cells: baculovirus expression system
In words: ALK Kinase Assay (ELISA-type, time-resolved fluorescence). It counts as biochemical. The procedure:
(§1) Briefly, each 96-well plate was coated with 100 μL/well of 10 μg/mL substrate (phospholipase C-γ) in Tris-buffered saline (TBS). […] The reaction was initiated by adding enzyme (30 ng/ml ALK) and was allowed to proceed at 37° C. for 15 minutes. Detection of the phosphorylated product was performed by adding 100 μl/well of Eu-N1 labeled PT66 antibody (Perkin Elmer # AD0041).
(§2) Data analysis was performed using ActivityBase (IDBS, Guilford, UK). IC50 values were calculated by plotting percent inhibition versus log10 of the concentration of compound and fitting to the nonlinear regression sigmoidal dose-response (variable slope) equation in XLFit (IDBS, Guilford, UK).
In general terms: In an ELISA, binding on a coated surface is turned into a signal by an enzyme label.

Experiment [2] addresses T2, c-Met (cytoplasmic domain) (Homo sapiens, UniProt P08581).
T2 construct: 10 ng/mL c-Met (cytoplasmic domain, Invitrogen Corporation #PV3143); purchased Invitrogen Corporation PV3143
The experiment can be described thus: c-Met Kinase Assay (same methods as for ALK, with modifications). It counts as biochemical. The method, then: as §1, §2
Reactions were initiated with 10 ng/mL c-Met (cytoplasmic domain, Invitrogen Corporation #PV3143).

The mark [3] stands for this setting: ALK kinase inhibition, 1 μM ATP, read-out: ALK Activity.
Setting [4] is: c-Met kinase inhibition, 1 μM ATP, read-out: cMet Activity.
Setting [5] is: 1 μM ATP (Km level), 30 ng/ml ALK, 37° C., 15 minutes, read-out: ALK Activity (ALK kinase inhibition, IC50 class).
The mark [6] stands for this setting: 1 μM ATP (Km level), 10 ng/mL c-Met, read-out: cMet Activity (c-Met kinase inhibition, IC50 class).
The mark [7] stands for this setting: ALK kinase inhibition, 1 μM ATP (Km level), read-out: ALK Activity.
The mark [8] stands for this setting: c-Met kinase inhibition, 1 μM ATP (Km level), read-out: cMet Activity.
[9] abbreviates: 1 μM ATP (Km level), read-out: ALK Activity (ALK Kinase Inhibition, IC50).
The mark [10] stands for this setting: 1 μM ATP (Km level), read-out: cMet Activity (c-Met Kinase Inhibition, IC50).

Where two headings read alike, the source gives them in different places.

T1 sequence (Q9UM73 19-1620): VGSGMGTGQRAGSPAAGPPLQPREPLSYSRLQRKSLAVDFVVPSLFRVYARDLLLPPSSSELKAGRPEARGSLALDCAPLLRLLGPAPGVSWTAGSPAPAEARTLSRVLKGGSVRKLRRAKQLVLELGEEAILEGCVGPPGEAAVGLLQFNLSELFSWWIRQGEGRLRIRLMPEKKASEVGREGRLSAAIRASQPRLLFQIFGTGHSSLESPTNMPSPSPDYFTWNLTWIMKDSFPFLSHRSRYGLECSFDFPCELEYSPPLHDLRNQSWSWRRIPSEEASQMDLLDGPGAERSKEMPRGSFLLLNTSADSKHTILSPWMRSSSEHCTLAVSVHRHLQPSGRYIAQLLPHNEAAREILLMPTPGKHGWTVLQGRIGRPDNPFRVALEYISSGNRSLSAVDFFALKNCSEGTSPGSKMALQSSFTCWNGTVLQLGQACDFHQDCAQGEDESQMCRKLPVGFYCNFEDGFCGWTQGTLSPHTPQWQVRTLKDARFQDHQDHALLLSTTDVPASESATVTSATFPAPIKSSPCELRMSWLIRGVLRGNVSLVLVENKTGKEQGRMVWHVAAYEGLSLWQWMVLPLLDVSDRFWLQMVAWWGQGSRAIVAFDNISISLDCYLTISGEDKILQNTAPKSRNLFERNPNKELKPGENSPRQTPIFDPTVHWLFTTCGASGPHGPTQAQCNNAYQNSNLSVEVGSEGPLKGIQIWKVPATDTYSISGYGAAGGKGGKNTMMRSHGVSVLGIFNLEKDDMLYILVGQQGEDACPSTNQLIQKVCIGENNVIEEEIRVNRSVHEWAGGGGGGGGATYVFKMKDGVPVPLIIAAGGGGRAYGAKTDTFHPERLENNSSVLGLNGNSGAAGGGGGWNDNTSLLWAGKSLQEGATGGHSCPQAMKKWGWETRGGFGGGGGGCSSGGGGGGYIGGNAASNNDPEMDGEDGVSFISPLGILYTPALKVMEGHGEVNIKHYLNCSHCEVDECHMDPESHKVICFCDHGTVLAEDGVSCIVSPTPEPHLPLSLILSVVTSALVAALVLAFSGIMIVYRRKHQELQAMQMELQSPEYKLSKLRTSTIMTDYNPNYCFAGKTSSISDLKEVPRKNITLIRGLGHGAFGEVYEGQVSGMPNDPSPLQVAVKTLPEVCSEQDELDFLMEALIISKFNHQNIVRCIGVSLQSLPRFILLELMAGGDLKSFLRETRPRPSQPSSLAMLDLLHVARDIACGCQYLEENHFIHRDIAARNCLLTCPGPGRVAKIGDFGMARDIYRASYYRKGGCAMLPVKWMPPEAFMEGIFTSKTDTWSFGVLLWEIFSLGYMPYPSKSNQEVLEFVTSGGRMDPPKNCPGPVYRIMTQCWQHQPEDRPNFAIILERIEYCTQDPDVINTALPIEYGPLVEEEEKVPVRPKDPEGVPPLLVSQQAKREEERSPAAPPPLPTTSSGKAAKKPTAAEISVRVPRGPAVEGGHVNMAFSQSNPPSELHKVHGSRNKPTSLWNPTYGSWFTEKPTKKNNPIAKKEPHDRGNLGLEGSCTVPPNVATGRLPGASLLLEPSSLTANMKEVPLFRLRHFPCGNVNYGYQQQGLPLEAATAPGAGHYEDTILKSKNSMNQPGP
T2 sequence (P08581 956-1390 limits assumed): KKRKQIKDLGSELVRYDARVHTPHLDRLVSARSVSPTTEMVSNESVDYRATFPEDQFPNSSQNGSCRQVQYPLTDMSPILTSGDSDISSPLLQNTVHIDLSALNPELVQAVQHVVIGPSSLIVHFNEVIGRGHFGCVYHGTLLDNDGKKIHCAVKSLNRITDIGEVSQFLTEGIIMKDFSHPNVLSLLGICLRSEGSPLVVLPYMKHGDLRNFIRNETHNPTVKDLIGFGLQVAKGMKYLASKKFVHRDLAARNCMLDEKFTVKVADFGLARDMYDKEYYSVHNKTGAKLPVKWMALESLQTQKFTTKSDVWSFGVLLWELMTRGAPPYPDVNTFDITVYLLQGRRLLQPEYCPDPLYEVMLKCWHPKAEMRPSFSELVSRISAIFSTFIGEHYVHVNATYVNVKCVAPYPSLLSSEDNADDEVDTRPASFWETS

For `CC(C)CN1C(=O)CCC(C)(C)c2ccc(Nc3ncc(Cl)c(N[C@H]4[C@@H](C(N)=O)[C@@H]5C=C[C@H]4C5)n3)cc21` [Example 1593, (1S,2S,3R,4R)-3-[5-Chloro-2-(1-isobutyl-5,5-dimethyl-2-oxo-2,3,4,5-tetrahydro-1H-benzo[b]azepin-8-ylamino)-pyrimidin-4-ylamino]-bicyclo[2.2.1]hept-5-ene-2-carboxylic acid amide], the IC50 in experiment [1] (setting [3]) was below 0.1 µM; in experiment [2] (setting [4]) it was 1 to 10 µM. With `Cc1cccc(C(N)=O)c1Nc1nc(Nc2ccc3c(c2)NC(=O)CCC3(C)C)ncc1Cl` [Example 1577, 2-[5-Chloro-2-(5,5-dimethyl-2-oxo-2,3,4,5-tetrahydro-1H-benzo[b]azepin-8-ylamino)-pyrimidin-4-ylamino]-3-methyl-benzamide], the IC50 in experiment [1] (setting [3]) fell in the range of 1 to 10 µM; in experiment [2] (setting [4]), 0.1 to 1 µM. `CNC(=O)c1cc(F)cc(F)c1Nc1nc(Nc2ccc3c(c2)NC(=O)CCC3)ncc1Cl` [Example 1278, 2-[5-Chloro-2-(2-oxo-2,3,4,5-tetrahydro-1H-1-benzazepin-8-ylamino)-pyrimidin-4-ylamino]-3,5-difluoro-N-methyl-benzamide]: the IC50 in experiment [1] (setting [5]) and in experiment [2] (setting [6]) was below 0.1 µM each time. Turning to `CCN1CCc2ccc(Nc3ncc(Cl)c(N[C@@H]4CCCC[C@H]4NS(C)(=O)=O)n3)c(OC)c2CC1` [Example 232, N-{(1R,2R)-2-[5-Chloro-2-(3-ethyl-6-methoxy-2,3,4,5-tetrahydro-1H-benzo[d]azepin-7-ylamino)-pyrimidin-4-ylamino]-cyclohexyl}-methanesulfonamide], the IC50 in experiment [1] (setting [7]) is below 0.1 µM; in experiment [2] (setting [8]) it was above 10 µM. `CNC(=O)c1sc(C(C)(C)C)cc1Nc1nc(Nc2ccc3c(c2)CCOC(=O)N3C)ncc1Cl` [Example 1761, 5-tert-Butyl-3-[5-chloro-2-(5-methyl-6-oxo-5,6,8,9-tetrahydro-7-oxa-5-aza-benzocyclohepten-2-ylamino)-pyrimidin-4-ylamino]-thiophene-2-carboxylic acid methylamide]: the IC50 in experiment [1] (setting [3]) and in experiment [2] (setting [4]) was 1 to 10 µM each time. `COCCN1CCc2ccc(Nc3ncc(Cl)c(N[C@@H]4CCCC[C@H]4NC(=O)C(F)(F)F)n3)cc2CC1` [Example 450, N-((1R,2R)-2-{5-Chloro-2-[3-(2-methoxy-ethyl)-2,3,4,5-tetrahydro-1H-benzo[d]azepin-7-ylamino]-pyrimidin-4-ylamino}-cyclohexyl)-2,2,2-trifluoro-acetamide]: the IC50 in experiment [1] (setting [7]) was below 0.1 µM; in experiment [2] (setting [8]) it was 0.1 to 1 µM. As for `CCN1C(=O)CCC(C)(C)c2ccc(Nc3ncc(Cl)c(Nc4ccccc4C(=O)NC)n3)cc21` [Example 1589, 2-[5-Chloro-2-(1-ethyl-5,5-dimethyl-2-oxo-2,3,4,5-tetrahydro-1H-benzo[b]azepin-8-ylamino)-pyrimidin-4-ylamino]-N-methyl-benzamide], the IC50 in experiment [1] (setting [3]) and in experiment [2] (setting [4]) was below 0.1 µM in each case. For `COc1cc2c(cc1Nc1ncc(Cl)c(Nc3ccccc3S(=O)(=O)N3CCCC3)n1)CCN(Cc1ncco1)CC2` [Example 1191, 5-Chloro-N*2*-(8-methoxy-3-oxazol-2-ylmethyl-2,3,4,5-tetrahydro-1H-benzo[d]azepin-7-yl)-N*4*-[2-(pyrrolidine-1-sulfonyl)-phenyl]-pyrimidine-2,4-diamine], the IC50 in experiment [1] (setting [5]) is below 0.1 µM; in experiment [2] (setting [6]) it was 1 to 10 µM.

As to `COc1cc2c(cc1Nc1ncc(Cl)c(Nc3ccc(N4CCN(C)CC4)cc3OC)n1)CCN(CCS(C)(=O)=O)CC2` [Example 771, 5-Chloro-N*2*-[3-(2-methanesulfonyl-ethyl)-8-methoxy-2,3,4,5-tetrahydro-1H-benzo[d]azepin-7-yl]-N*4*-[2-methoxy-4-(4-methyl-piperazin-1-yl)-phenyl]-pyrimidine-2,4-diamine], the IC50 in experiment [1] (setting [9]) is below 0.1 µM; in experiment [2] (setting [10]), above 10 µM. With `CCN1CCN(CC)c2cc(Nc3ncc(Cl)c(Nc4ccc(OC)cc4-n4cccn4)n3)ccc2C1` [Example 732, 5-Chloro-N(2)-(1,4-diethyl-2,3,4,5-tetrahydro-1H-benzo[e][1,4]diazepin-8-yl)-N(4)-(4-methoxy-2-pyrazol-1-yl-phenyl)-pyrimidine-2,4-diamine], the IC50 is below 0.1 µM in experiment [1] (setting [9]) and 1 to 10 µM in experiment [2] (setting [10]). With `CCN1C(=O)CCCc2c(OC)ccc(Nc3ncc(Cl)c(Nc4ccc(N5CCOCC5)cc4OC)n3)c21` [Example 125, 9-[5-Chloro-4-(2-methoxy-4-morpholin-4-yl-phenylamino)-pyrimidin-2-ylamino]-1-ethyl-6-methoxy-1,3,4,5-tetrahydro-benzo[b]azepin-2-one], the IC50 in experiment [1] (setting [7]) was below 0.1 µM; in experiment [2] (setting [8]), above 10 µM. The corresponding values for `CNC(=O)c1ccccc1Nc1nc(Nc2ccc3c(c2)C2CC3CN(C(C)C)C2)ncc1Cl` (stereo not drawn) [Example 158, 2-[5-chloro-2-(10-isopropyl-10-aza-tricyclo[6.3.1.0*2,7*]dodeca-2,4,6-trien-4-ylamino)-pyrimidin-4-ylamino]-N-methyl-benzamide] are below 0.1 µM and 0.1 to 1 µM. On to `CN1C(=O)OCCc2cc(Nc3ncc(Cl)c(Nc4ccccc4-c4nccn4C)n3)ccc21` [Example 1749, 2-{5-chloro-4-[2-(1-methyl-1H-imidazol-2-yl)-phenylamino]-pyrimidin-2-ylamino}-5-methyl-8,9-dihydro-5H-7-oxa-5-aza-benzocyclohepten-6-one], for which the IC50 was below 0.1 µM in experiment [1] (setting [3]) and 0.1 to 1 µM in experiment [2] (setting [4]). With `COc1ccc2c(c1Nc1ncc(Cl)c(N[C@@H]3CCCC[C@H]3NS(C)(=O)=O)n1)CCC(N1CCOCC1)CC2` (stereo partly drawn) [Example 1070, N-{(1R,2R)-2-[5-Chloro-2-(2-methoxy-7-morpholin-4-yl-6,7,8,9-tetrahydro-5H-benzocyclohepten-1-ylamino)-pyrimidin-4-ylamino]-cyclohexyl}-methanesulfonamide], the results for the IC50 in experiment [1] (setting [5]) and in experiment [2] (setting [6]) were 0.1 to 1 µM and above 10 µM, respectively. For `COc1cc(N2CCOCC2)ccc1Nc1nc(Nc2ccc3c(c2)CCN(CC(=O)N(C)C)CC3)ncc1Cl` [Example 1368, 2-{7-[5-Chloro-4-(2-methoxy-4-morpholin-4-yl-phenylamino)-pyrimidin-2-ylamino]-1,2,4,5-tetrahydro-benzo[d]azepin-3-yl}-N,N-dimethyl-acetamide], the values for the IC50 in experiment [1] (setting [5]) and in experiment [2] (setting [6]) were below 0.1 µM and 1 to 10 µM, respectively. Take `CCN1C(=O)CCCc2cc(Nc3ncc(Cl)c(Nc4ccc(N5CCOCC5)cc4OC)n3)c(OC)cc21` [Example 135, 7-[5-Chloro-4-(2-methoxy-4-morpholin-4-yl-phenylamino)-pyrimidin-2-ylamino]-1-ethyl-8-methoxy-1,3,4,5-tetrahydro-benzo[b]azepin-2-one]: the results for the IC50 in experiment [1] (setting [7]) and in experiment [2] (setting [8]) were below 0.1 µM and above 10 µM, respectively. As for `COc1cc2c(cc1Nc1ncc(Cl)c(Nc3ccccc3S(=O)(=O)C(C)C)n1)CCN(CC(=O)N1CCOCC1)CC2` [Example 1536, 2-(7-{5-Chloro-4-[2-(propane-2-sulfonyl)-phenylamino]-pyrimidin-2-ylamino}-8-methoxy-1,2,4,5-tetrahydro-3-benzazepin-3-yl)-1-morpholin-4-yl-ethanone], the values for the IC50 in experiment [1] (setting [3]) and in experiment [2] (setting [4]) were below 0.1 µM and above 10 µM, respectively. Consider `COc1cc2c(cc1Nc1ncc(Cl)c(Nc3ccc(C#N)cc3OC)n1)CCN(CC(=O)N(C)C)CC2` [Example 1163, 2-{7-[5-Chloro-4-(4-cyano-2-methoxy-phenylamino)-pyrimidin-2-ylamino]-8-methoxy-1,2,4,5-tetrahydro-benzo[d]azepin-3-yl}-N,N-dimethyl-acetamide], for which, in experiment [2] (setting [6]), the IC50 is above 10 µM. With `COc1ccc(Nc2nc(Nc3cc4c(cc3OC)CCN(CC(=O)N(C)C)CC4)ncc2Cl)c(OC)c1` [Example 812, 2-{7-[5-Chloro-4-(2,4-dimethoxy-phenylamino)-pyrimidin-2-ylamino]-8-methoxy-1,2,4,5-tetrahydro-benzo[d]azepin-3-yl}-N,N-dimethyl-acetamide], the IC50 in experiment [2] (setting [10]) is above 10 µM. In the case of `COCCOc1ccc(Nc2nc(Nc3cc4c(cc3OC)CCN(CC(=O)N(C)C)CC4)ncc2Cl)c(OC)c1` [Example 1169, 2-(7-{5-Chloro-4-[2-methoxy-4-(2-methoxy-ethoxy)-phenylamino]-pyrimidin-2-ylamino}-8-methoxy-1,2,4,5-tetrahydro-benzo[d]azepin-3-yl)-N,N-dimethyl-acetamide], the IC50 in experiment [2] (setting [6]) was above 10 µM. Turning to `COc1cc2c(cc1Nc1ncc(Cl)c(Nc3ccc(N4CCOCC4)cc3OC)n1)CCN(CCS(C)(=O)=O)CC2` [Example 1120, 5-Chloro-N*2*-[3-(2-methanesulfonyl-ethyl)-8-methoxy-2,3,4,5-tetrahydro-1H-benzo[d]azepin-7-yl]-N*4*-(2-methoxy-4-morpholin-4-yl-phenyl)-pyrimidine-2,4-diamine], the IC50 in experiment [2] (setting [6]) is above 10 µM. For `CNC(=O)CN1CCc2cc(Nc3ncc(Cl)c(Nc4ccc(N5CCOCC5)cc4OC)n3)c(OC)cc2CC1` [Example 1113, 2-{7-[5-Chloro-4-(2-methoxy-4-morpholin-4-yl-phenylamino)-pyrimidin-2-ylamino]-8-methoxy-1,2,4,5-tetrahydro-benzo[d]azepin-3-yl}-N-methyl-acetamide], in experiment [2] (setting [6]), the IC50 was above 10 µM.
